≈ marks a conversion by molar mass, not a printed value. Numbered stars: 1 amine (or outer) side, 2 acyl side, 3 side chain; on linkers, the order of the positions; unused ones are H or OH. Peptide text beside a SMILES is read from it. * marks the point of attachment. C20 diacid = O=C(O)CCCCCCCCCCCCCCCCCCC(=O)*; γGlu = O=C(O)[C@H](CCC(=O)[*:2])N[*:1]
Experiments:
rat calcitonin receptor = target: T1, rat calcitonin receptor (Rattus norvegicus, UniProt P32214); experiment: Assay (VIII) binding to the rat calcitonin receptor; conditions: membranes; read-out: rCT-R binding IC50
T1 construct: expressed in transfected cells; host or cells: BHK tk'ts 13 (transient, FuGENE 6)
T1 sequence (P32214 25-479 isoform P32214-2 limits assumed): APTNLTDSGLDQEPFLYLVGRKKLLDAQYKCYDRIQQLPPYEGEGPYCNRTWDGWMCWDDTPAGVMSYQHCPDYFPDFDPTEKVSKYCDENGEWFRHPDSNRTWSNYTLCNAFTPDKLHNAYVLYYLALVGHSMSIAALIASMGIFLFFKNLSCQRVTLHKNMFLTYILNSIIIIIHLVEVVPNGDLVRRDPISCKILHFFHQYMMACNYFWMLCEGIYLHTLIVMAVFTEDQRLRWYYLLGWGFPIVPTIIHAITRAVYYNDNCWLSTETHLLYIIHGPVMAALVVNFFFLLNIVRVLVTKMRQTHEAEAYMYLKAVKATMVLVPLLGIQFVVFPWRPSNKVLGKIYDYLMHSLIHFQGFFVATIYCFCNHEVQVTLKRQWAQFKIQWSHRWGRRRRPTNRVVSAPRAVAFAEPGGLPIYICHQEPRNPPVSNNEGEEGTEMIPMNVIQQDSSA
Method in brief: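 Competition binding on membranes from BHK tk'ts 13 cells transiently transfected with rat calcitonin receptor, otherwise run as the human receptor assay. Plates washed in cold HBSS, lysed in 0.1 M NaOH/1% SDS and scintillation-counted. IC50 from one-site competition fit as affinity measure.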

[1] = Assay (IV) determination of solubility; format: physicochemical
Method: Assay (IV)—Determination of Solubility
The mimylin peptide was dissolved in water at ˜500 nmol/ml and mixed 1:1 with a series of buffers (100 mM glycylglycine pH 3.0, 100 mM glycylglycine pH 4.0, 100 mM glycylglycine pH 5.0, 100 mM bistrispropane pH 6.0, 100 mM bistrispropane pH 6.5, 100 mM bistrispropane pH 7.0, 100 mM bistrispropane pH 7.5, 100 mM bistrispropane pH 8.0).

Compound	IC50 (rat calcitonin receptor) [nM]	Solubility ([1]; pH 3.0)	Solubility ([1]; pH 4.0)	solubility at 18 h ([1]; pH 5.0) [µM]	Solubility ([1]; pH 6.0)	Solubility ([1]; pH 6.5)	Solubility ([1]; pH 7.0)	Solubility ([1]; pH 7.5)	Solubility ([1]; pH 8.0)	solubility at 18 h ([1]; pH 6.0) [µM]	solubility at 18 h ([1]; pH 6.5) [µM]	solubility at 18 h ([1]; pH 4.0) [µM]
CC(C)C[C@H](NC(=O)[C@H](CCCNC(=N)N)NC(=O)CNC(=O)[C@H](CC(C)C)NC(=O)[C@@H](NC(=O)[C@H](C)NC(=O)[C@@H](NC(=O)[C@H](CO)NC(=O)[C@H](CC(C)C)NC(=O)[C@H](CCC(=O)O)NC(=O)[C@H](CO)NC(=O)[C@H](C)NC(=O)CC[C@H](NC(=O)CCCCCCCCCCCCCCCCCCC(=O)O)C(=O)O)[C@@H](C)O)[C@@H](C)O)C(=O)N[C@@H](CO)C(=O)N[C@@H](C)C(=O)N[C@@H](CCC(=O)O)C(=O)N[C@@H](CC(C)C)C(=O)N[C@@H](Cc1cnc[nH]1)C(=O)N[C@@H](CCC(=O)O)C(=O)N[C@@H](CC(C)C)C(=O)N[C@@H](CO)C(=O)N[C@H](C(=O)N[C@@H](Cc1ccc(O)cc1)C(=O)N1CCC[C@H]1C(=O)N[C@@H](CCCNC(=N)N)C(=O)N[C@H](C(=O)N[C@@H](CCC(=O)O)C(=O)N[C@H](C(=O)NCC(=O)N[C@@H](CO)C(=O)NCC(=O)N[C@@H](CO)C(=O)N[C@@H](Cc1ccc(O)cc1)C(N)=O)[C@@H](C)O)[C@@H](C)O)[C@@H](C)O [compound 99, [N-terminal(C20 diacid-gGlu), des1, 9T, 21S, 23Y, 30S, 31G, 33Y]mimylin] ({C20 diacid-γGlu}-ASELSTATLGRLSAELHELSTYPRTETGSGSY-NH2)	0.069	≧200 μM	≧200 μM	19 (≈ 72.9 µg/mL)	≧200 μM	≧200 μM	≧200 μM	≧200 μM	≧200 μM	–	–	–
CC(C)C[C@H](NC(=O)[C@H](CO)NC(=O)[C@H](C)NC(=O)[C@@H](NC(=O)[C@H](CO)NC(=O)[C@H](CC(C)C)NC(=O)[C@H](CCC(=O)O)NC(=O)[C@H](CO)NC(=O)[C@H](C)NC(=O)CC[C@H](NC(=O)CCCCCCCCCCCCCCCCCCC(=O)O)C(=O)O)[C@@H](C)O)C(=O)NCC(=O)N[C@@H](CCCNC(=N)N)C(=O)N[C@@H](CC(C)C)C(=O)N[C@@H](CO)C(=O)N[C@@H](C)C(=O)N[C@@H](CCC(=O)O)C(=O)N[C@@H](CC(C)C)C(=O)N[C@@H](Cc1cnc[nH]1)C(=O)N[C@@H](CCC(=O)O)C(=O)N[C@@H](CC(C)C)C(=O)N[C@@H](CO)C(=O)N[C@H](C(=O)N[C@@H](Cc1ccc(O)cc1)C(=O)N1CCC[C@H]1C(=O)N[C@@H](CCCNC(=N)N)C(=O)N[C@H](C(=O)N[C@@H](CCC(=O)O)C(=O)N[C@H](C(=O)NCC(=O)N[C@@H](CO)C(=O)NCC(=O)N[C@@H](CO)C(=O)N[C@@H](Cc1ccc(O)cc1)C(N)=O)[C@@H](C)O)[C@@H](C)O)[C@@H](C)O [compound 100, [N-terminal(C20 diacid-gGlu), des1, 9S, 21S, 23Y, 30S, 31G, 33Y]mimylin] ({C20 diacid-γGlu}-ASELSTASLGRLSAELHELSTYPRTETGSGSY-NH2)	0.062	≧200 μM	–	1 (≈ 3.82 µg/mL)	–	–	≧200 μM	≧200 μM	≧200 μM	63 (≈ 241 µg/mL)	180 (≈ 688 µg/mL)	–
CC(C)C[C@H](NC(=O)CNC(=O)[C@H](CO)NC(=O)[C@H](C)NC(=O)COCCOCCNC(=O)COCCOCCNC(=O)CC[C@H](NC(=O)CCCCCCCCCCCCCCCCCCC(=O)O)C(=O)O)C(=O)N[C@@H](CO)C(=O)N[C@H](C(=O)N[C@@H](C)C(=O)N[C@H](C(=O)N[C@@H](CC(C)C)C(=O)NCC(=O)N[C@@H](CCCNC(=N)N)C(=O)N[C@@H](CC(C)C)C(=O)N[C@@H](CO)C(=O)N[C@@H](CCC(N)=O)C(=O)N[C@@H](CCC(=O)O)C(=O)N[C@@H](CC(C)C)C(=O)N[C@@H](Cc1cnc[nH]1)C(=O)N[C@@H](CCC(=O)O)C(=O)N[C@@H](CC(C)C)C(=O)N[C@@H](CCC(N)=O)C(=O)N[C@H](C(=O)N[C@@H](Cc1ccc(O)cc1)C(=O)N1CCC[C@H]1C(=O)N[C@@H](CCCNC(=N)N)C(=O)N[C@H](C(=O)N[C@@H](CCC(=O)O)C(=O)N[C@H](C(=O)NCC(=O)N[C@@H](CO)C(=O)NCC(=O)N[C@H](C(=O)N[C@@H](Cc1ccc(O)cc1)C(N)=O)[C@@H](C)O)[C@@H](C)O)[C@@H](C)O)[C@@H](C)O)C(C)C)[C@@H](C)O [compound 120, [N-terminal(C20 diacid-gGlu-2xOEG), des1, 4G, 9V, 15Q, 21Q, 23Y, 30S, 31G, 32T, 33Y]mimylin]	0.027	≧200 μM	≧200 μM	96 (≈ 400 µg/mL)	≧200 μM	≧200 μM	≧200 μM	≧200 μM	≧200 μM	–	–	–

The remaining lines, values ahead:

IC50 (rat calcitonin receptor) [nM]	Solubility ([1]; pH 3.0)	Solubility ([1]; pH 4.0)	solubility at 18 h ([1]; pH 5.0) [µM]	Solubility ([1]; pH 6.0)	Solubility ([1]; pH 6.5)	Solubility ([1]; pH 7.0)	Solubility ([1]; pH 7.5)	Solubility ([1]; pH 8.0)	solubility at 18 h ([1]; pH 6.0) [µM]	solubility at 18 h ([1]; pH 6.5) [µM]	solubility at 18 h ([1]; pH 4.0) [µM]	Compound
0.012	≧200 μM	≧200 μM	7 (≈ 27.4 µg/mL)	≧200 μM	≧200 μM	≧200 μM	≧200 μM	≧200 μM	–	–	–	CC(C)C[C@H](NC(=O)CNC(=O)[C@H](CO)NC(=O)[C@H](C)NC(=O)CC[C@H](NC(=O)CCCCCCCCCCCCCCCCCCC(=O)O)C(=O)O)C(=O)N[C@@H](CO)C(=O)N[C@H](C(=O)N[C@@H](C)C(=O)N[C@@H](C)C(=O)N[C@@H](CC(C)C)C(=O)NCC(=O)N[C@@H](CCCNC(=N)N)C(=O)N[C@@H](CC(C)C)C(=O)N[C@@H](CO)C(=O)N[C@@H](CCC(N)=O)C(=O)N[C@@H](CCC(=O)O)C(=O)N[C@@H](CC(C)C)C(=O)N[C@@H](Cc1cnc[nH]1)C(=O)N[C@@H](CCC(=O)O)C(=O)N[C@@H](CC(C)C)C(=O)N[C@@H](CCC(N)=O)C(=O)N[C@H](C(=O)N[C@@H](Cc1ccc(O)cc1)C(=O)N1CCC[C@H]1C(=O)N[C@@H](CCCNC(=N)N)C(=O)N[C@H](C(=O)N[C@@H](CCC(=O)O)C(=O)N[C@H](C(=O)NCC(=O)N[C@@H](CO)C(=O)N[C@@H](CCC(N)=O)C(=O)N[C@H](C(=O)N[C@@H](Cc1ccc(O)cc1)C(N)=O)[C@@H](C)O)[C@@H](C)O)[C@@H](C)O)[C@@H](C)O)[C@@H](C)O [compound 109, [N-terminal(C20 diacid-gGlu), des1, 4G, 15Q, 21Q, 23Y, 30S, 31Q, 32T, 33Y]mimylin] ({C20 diacid-γGlu}-ASGLSTAALGRLSQELHELQTYPRTETGSQTY-NH2)
0.016	≧200 μM	–	56 (≈ 221 µg/mL)	≧200 μM	≧200 μM	≧200 μM	≧200 μM	≧200 μM	–	–	170 (≈ 671 µg/mL)	CC(C)C[C@H](NC(=O)CNC(=O)[C@H](CO)NC(=O)[C@H](C)NC(=O)CC[C@H](NC(=O)CCCCCCCCCCCCCCCCCCC(=O)O)C(=O)O)C(=O)N[C@@H](CO)C(=O)N[C@H](C(=O)N[C@@H](C)C(=O)N[C@H](C(=O)N[C@@H](CC(C)C)C(=O)NCC(=O)N[C@@H](CCCNC(=N)N)C(=O)N[C@@H](CC(C)C)C(=O)N[C@@H](CO)C(=O)N[C@@H](CCC(N)=O)C(=O)N[C@@H](CCC(=O)O)C(=O)N[C@@H](CC(C)C)C(=O)N[C@@H](Cc1cnc[nH]1)C(=O)N[C@@H](CCC(=O)O)C(=O)N[C@@H](CC(C)C)C(=O)N[C@@H](CCC(N)=O)C(=O)N[C@H](C(=O)N[C@@H](Cc1ccc(O)cc1)C(=O)N1CCC[C@H]1C(=O)N[C@@H](CCCNC(=N)N)C(=O)N[C@H](C(=O)N[C@@H](CCC(=O)O)C(=O)N[C@H](C(=O)NCC(=O)N[C@@H](CO)C(=O)N[C@@H](CCC(N)=O)C(=O)N[C@H](C(=O)N[C@@H](Cc1ccc(O)cc1)C(N)=O)[C@@H](C)O)[C@@H](C)O)[C@@H](C)O)[C@@H](C)O)C(C)C)[C@@H](C)O [compound 119, [N-terminal(C20 diacid-gGlu), des1, 4G, 9V, 15Q, 21Q, 23Y, 30S, 31Q, 32T, 33Y]mimylin] ({C20 diacid-γGlu}-ASGLSTAVLGRLSQELHELQTYPRTETGSQTY-NH2)

Reference: patent US9593149B2, “Amylin and calcitonin receptor agonist” (Novo Nordisk A/S, priority 2014, dated 2017)
